Data as given in ChEMBL document CHEMBL1151628, “Antibacterial constituents of the diatom Navicula delognei” (1984).
The source made the active and inactive calls. No cut-off for these calls is given here.

Tests used:
[1] = system: Serratia marcescens; experiment: Antimicrobial activity against Serratia marcescens ATCC 8100 at 0.1 mg/disk by disk diffusion assay; type: functional
[2] = system: Staphylococcus aureus; experiment: Antimicrobial activity against Staphylococcus aureus ATCC 25923 at 0.5 mg/disk by disk diffusion assay; type: functional
[3] = system: Escherichia coli; experiment: Antimicrobial activity against Escherichia coli ATCC 25922 at 0.5 mg/disk by disk diffusion assay; type: functional, organism-based
[4] = system: Staphylococcus epidermidis; experiment: Antimicrobial activity against Staphylococcus epidermidis ATCC 12228 at 0.5 mg/disk by disk diffusion assay; type: functional
[5] = system: Salmonella typhimurium; experiment: Antimicrobial activity against Salmonella Typhimurium ATCC 14028 at 0.5 mg/disk by disk diffusion assay; type: functional, Salmonella enterica subsp. enterica serovar Typhimurium
[6] = system: Proteus vulgaris; experiment: Antimicrobial activity against Proteus vulgaris ATCC 13315 at 0.5 mg/disk by disk diffusion assay; type: functional
[7] = system: Staphylococcus aureus; experiment: Antimicrobial activity against Staphylococcus aureus ATCC 25923 at 0.1 mg/disk by disk diffusion assay; type: functional
[8] = system: Staphylococcus epidermidis; experiment: Antimicrobial activity against Staphylococcus epidermidis ATCC 12228 at 0.1 mg/disk by disk diffusion assay; type: functional
[9] = system: Salmonella typhimurium; experiment: Antimicrobial activity against Salmonella Typhimurium ATCC 14028 at 0.1 mg/disk by disk diffusion assay; type: functional, Salmonella enterica subsp. enterica serovar Typhimurium
[10] = system: Enterobacter cloacae; experiment: Antimicrobial activity against Enterobacter cloacae ATCC 23355 at 0.1 mg/disk by disk diffusion assay; type: functional
[11] = system: Klebsiella pneumoniae; experiment: Antimicrobial activity against Klebsiella pneumoniae ATCC 13883 at 0.1 mg/disk by disk diffusion assay; type: functional
[12] = system: Proteus vulgaris; experiment: Antimicrobial activity against Proteus vulgaris ATCC 13315 at 0.1 mg/disk by disk diffusion assay; type: functional

Row | Structure (SMILES) | inhibition zone (IZ) [2] | Activity [3] | inhibition zone (IZ) [4] | inhibition zone (IZ) [5] | Activity [6] | also measured
1 | O=C(N[C@H](CO)[C@H](O)c1ccc([N+](=O)[O-])cc1)C(Cl)Cl [CHLORAMPHENICOL] | – | – | – | – | – | inhibition zone (IZ) [1]: >4 mm
2 | CC/C=C\C/C=C\C/C=C\C/C=C\CCCCC(=O)O | >2 mm | Active | >2 mm | >2 mm | – | inhibition zone (IZ) [6]: >2 mm
3 | CC/C=C\C/C=C\C/C=C\C/C=C\C/C=C\CCCC(=O)OC/C=C(\C)CCCC(C)CCCC(C)CCCC(C)C (stereo unspecified) | >4 mm | – | >2 mm | >2 mm | Active | –
4 | C=CC/C=C\C/C=C\C/C=C\CCCCC(=O)O | >2 mm | Active | >2 mm | >4 mm | Active | –
5 | CC1(C)S[C@@H]2[C@H](NC(=O)[C@H](N)c3ccccc3)C(=O)N2[C@H]1C(=O)O [AMPICILLIN] | – | – | – | – | – | inhibition zone (IZ) [7]: >4 mm; inhibition zone (IZ) [8]: >4 mm; inhibition zone (IZ) [9]: >4 mm; inhibition zone (IZ) [10]: >4 mm
6 | CN(C)[C@@H]1C(O)=C(C(N)=O)C(=O)[C@@]2(O)C(O)=C3C(=O)c4c(O)cccc4[C@@](C)(O)[C@H]3C[C@@H]12 [TETRACYCLINE] | – | – | – | – | – | inhibition zone (IZ) [11]: >4 mm; inhibition zone (IZ) [12]: >4 mm
